Laboratory results as given in patent publication US20100311748A1, “HETEROCYCLIC AMIDES USEFUL FOR THE TREATMENT OF CANCER AND PSORIASIS” (ASTRAZENECA AB, priority 2007, published 2010).

What follows are molecules tested on Hedgehog pathway (assay: Hedgehog Pathway Cellular Differentiation Assay (alkaline phosphatase production in C3H10T1/2 cells with Shh ligand)). Conditions: Mus musculus, C3H 10T1/2, 3 μM compound, Shh ligand conditioned media, 72 h, alkaline phosphatase.
Format: cell-based
Method: Hedgehog Pathway Cellular Differentiation Assay The ability of compounds of the invention to inhibit the Hedgehog pathway can be determined by the following cell differentiation assay. C3H10T1/2 cells were plated into 384 well plates at a concentration of 5000 cells/well in DMEM/10% FBS. The following day the media was changed to 20% conditioned media (low serum media DMEM/2% FBS+Shh ligand). Compounds were solubilized in 100% DMSO to a concentration of 10 mM and then serially diluted three fold in 100% DMSO. The highest concentration in the cell plate was 30 μM and the lowest was 3 nM. The compounds were then added to the cells. Cell plates were incubated with the compound for 72 h and then assayed for alkaline phosphatase production using pNp as a substrate. Briefly, after 72 h of incubation, the media was aspirated from the cells and washed with 30 μl of PBS. PBS was aspirated off the cells and 15 μl of 1×RIPA cell lysis buffer is added on to the cells. The cell plates are then incubated at −80° C. for 30 minutes to insure proper cell lysis. The plates were then thawed back to RT. The substrate solution containing pNp at 1 mg/mL in diethanolamine buffer pH 9.8 was then added onto the lysed cells. The plates were incubated at 30° C. for color development and read at an absorbance of 405 nm. The percent inhibition and IC50 value was then calculated from the absorbance data using standard procedures.
Work on Cc1ccc(-c2nc3ccccc3[nH]2)cc1NC(=O)c1ccc(OCc2ccccn2)cc1 [Example 30, N-[5-(1H-benzoimidazol-2-yl)-2-methyl-phenyl]-4-(pyridin-2-ylmethoxy)benzamide] yielded an inhibition at 3 µM of 80.1%.
Cc1cc(-c2nc3ccccc3[nH]2)ccc1NC(=O)c1ccc(OCc2ccccn2)cc1 [Example 31, N-[4-(1H-benzoimidazol-2-yl)-2-methyl-phenyl]-4-(pyridin-2-ylmethoxy)benzamide] gave an inhibition at 3 µM of 27.9%.
In the case of Cc1nc(C)c(-c2ccc(C)c(NC(=O)c3ccc(OCc4ccccn4)cc3)c2)s1 [Example 32, N-[5-(2,4-dimethyl1,3-thiazol-5-yl)-2-methyl-phenyl]-4-(pyridin-2-ylmethoxy)benzamide], the inhibition at 3 µM is reported as 54.1%.
With Cc1ccc(-c2cnn(C)c2)cc1NC(=O)c1ccc(OCc2ccccn2)cc1 [Example 33, N-[2-methyl-5-(1-methylpyrazol-4-yl)phenyl]-4-(pyridin-2-ylmethoxy)benzamide] the inhibition at 3 µM was 54.7%.
For Cc1ccc(-c2ccnn2C)cc1NC(=O)c1ccc(OCc2ccccn2)cc1 [Example 34, N-[2-methyl-5-(2-methylpyrazol-3-yl)phenyl]-4-(pyridin-2-ylmethoxy)benzamide], the inhibition at 3 µM was 69.4%.
Work on Cc1ccc(-c2c(C)nn(C)c2C)cc1NC(=O)c1ccc(OCc2ccccn2)cc1 [Example 35, N-[2-methyl-5-(1,3,5-trimethylpyrazol-4-yl)phenyl]-4-(pyridin-2-ylmethoxy)benzamide] yielded an inhibition at 3 µM of 76.8%.
Cc1ccc(-c2cnn(CC(C)C)c2)cc1NC(=O)c1ccc(OCc2ccccn2)cc1 [Example 36, N-[2-methyl-5-[1-(2-methylpropyl)pyrazol-4-yl]phenyl]-4-(pyridin-2-ylmethoxy)benzamide] was tested, and the inhibition at 3 µM was 26.9%.
For Cc1ccc(-c2cc(C(F)(F)F)n[nH]2)cc1NC(=O)c1ccc(OCc2ccccn2)cc1 [Example 37, N-[2-methyl-5-[5-(trifluoromethyl)-2H-pyrazol-3-yl]phenyl]-4-(pyridin-2-ylmethoxy)benzamide], the inhibition at 3 µM was 38.2%.
Cc1nnc(-c2ccc(C)c(NC(=O)c3ccc(OCc4ccccn4)cc3)c2)o1 [Example 38, N-(2-methyl-5-(5-methyl-1,3,4-oxadiazol-2-yl)phenyl)-4-(pyridin-2-ylmethoxy)benzamide] showed an inhibition at 3 µM of 24.2%.
Cc1ccc(-c2nnc(C)n2C)cc1NC(=O)c1ccc(OCc2ccccn2)cc1 [Example 39, N-(5-(4,5-dimethyl-4H-1,2,4-triazol-3-yl)-2-methylphenyl)-4-(pyridin-2-ylmethoxy)benzamide] was tested, and the inhibition at 3 µM was 7.8%.
Cc1nc(-c2ccc(C)c(NC(=O)c3ccc(OCc4ccccn4)cc3)c2)no1 [Example 40, N-(2-methyl-5-(5-methyl-1,2,4-oxadiazol-3-yl)phenyl)-4-(pyridin-2-ylmethoxy)benzamide] gave an inhibition at 3 µM of 6.5%.
COc1cccc(COc2ccc(C(=O)Nc3cc(-c4ncc[nH]4)ccc3C)cc2)c1 [Example 41, N-(5-(1H-imidazol-2-yl)-2-methylphenyl)-4-(3-methoxybenzyloxy)benzamide] showed an inhibition at 3 µM of 51.9%.
Work on COc1cc(COc2ccc(C(=O)Nc3cc(-c4nc(C)cn4C)ccc3C)cc2)cc(OC)c1 [Example 42, 4-[(3,5-dimethoxyphenyl)methoxy]-N-[5-(1,4-dimethylimidazol-2-yl)-2-methyl-phenyl]benzamide] yielded an inhibition at 3 µM of 79.4%.
COc1cc(COc2ccc(C(=O)Nc3cc(-c4nc(C)c[nH]4)ccc3C)cc2)cc(OC)c1 [Example 43, 4-[(3,5-dimethoxyphenyl)methoxy]-N-[2-methyl-5-(4-methyl-1H-imidazol-2-yl)phenyl]benzamide] was tested, and the inhibition at 3 µM was 81.4%.
Molecule Cc1c[nH]c(-c2ccc(C)c(NC(=O)c3ccc(OCc4ccccc4C#N)cc3)c2)n1 [Example 44, 4-[(2-cyanophenyl)methoxy]-N-[2-methyl-5-(4-methyl-1H-imidazol-2-yl)phenyl]benzamide] has an inhibition at 3 µM of 80.7%.
With Cc1cn(C)c(-c2ccc(C)c(NC(=O)c3ccc(OCc4ccccc4C#N)cc3)c2)n1 [Example 45, 4-[(2-cyanophenyl)methoxy]-N-[5-(1,4-dimethylimidazol-2-yl)-2-methyl-phenyl]benzamide] the inhibition at 3 µM was 80.3%.
Cc1ccc(-c2ncc[nH]2)cc1NC(=O)c1ccc(OCc2ccccc2C#N)cc1 [Example 46, 4-[(2-cyanophenyl)methoxy]-N-[5-(1H-imidazol-2-yl)-2-methyl-phenyl]benzamide] showed an inhibition at 3 µM of 81.9%.
Work on COc1cc(COc2ccc(C(=O)Nc3cc(-c4ncc[nH]4)ccc3C)cc2)cc(OC)c1 [Example 47, 4-[(3,5-dimethoxyphenyl)methoxy]-N-[5-(1H-imidazol-2-yl)-2-methyl-phenyl]benzamide] yielded an inhibition at 3 µM of 80.9%.
Molecule COc1cc(COc2ccc(C(=O)Nc3cc(-c4ncc(C)n4C)ccc3C)cc2)cc(OC)c1 [Example 48, 4-[(3,5-dimethoxyphenyl)methoxy]-N-[5-(1,5-dimethylimidazol-2-yl)-2-methyl-phenyl]benzamide] has an inhibition at 3 µM of 81.5%.
Cc1ccc(-c2ncc(C)n2C)cc1NC(=O)c1ccc(OCc2ccccc2C#N)cc1 [Example 49, 4-[(2-cyanophenyl)methoxy]-N-[5-(1,5-dimethylimidazol-2-yl)-2-methyl-phenyl]benzamide] showed an inhibition at 3 µM of 82%.
In the case of COc1cc(COc2ccc(C(=O)Nc3cc(-c4nccn4C)ccc3C)cc2)cc(OC)c1 [Example 50, 4-[(3,5-dimethoxyphenyl)methoxy]-N-[2-methyl-5-(1-methylimidazol-2-yl)phenyl]benzamide], the inhibition at 3 µM is reported as 80.5%.
In the case of Cc1ccc(-c2nccn2C)cc1NC(=O)c1ccc(OCc2ccccc2C#N)cc1 [Example 51, 4-[(2-cyanophenyl)methoxy]-N-[2-methyl-5-(1-methylimidazol-2-yl)phenyl]benzamide], the inhibition at 3 µM is reported as 82.1%.
With Cc1ccc(-c2cncn2C)cc1NC(=O)c1ccc(OCc2ccccc2C#N)cc1 [Example 52, 4-[(2-cyanophenyl)methoxy]-N-[2-methyl-5-(3-methylimidazol-4-yl)phenyl]benzamide] the inhibition at 3 µM was 79.8%.
For Cc1ccc(-c2cn(C)cn2)cc1NC(=O)c1ccc(OCc2ccccc2C#N)cc1 [Example 53, 4-[(2-cyanophenyl)methoxy]-N-[2-methyl-5-(1-methylimidazol-4-yl)phenyl]benzamide], the inhibition at 3 µM was 80.4%.
Cc1ccc(-c2nc[nH]c2C)cc1NC(=O)c1ccc(OCc2ccccc2C#N)cc1 [Example 54, 4-[(2-cyanophenyl)methoxy]-N-[2-methyl-5-(5-methyl-1H-imidazol-4-yl)phenyl]benzamide] was tested, and the inhibition at 3 µM was 77.5%.
In the case of Cc1ccc(-c2cnc(C)n2C)cc1NC(=O)c1ccc(OCc2ccccc2C#N)cc1 [Example 55, 4-[(2-cyanophenyl)methoxy]-N-[5-(2,3-dimethylimidazol-4-yl)-2-methyl-phenyl]benzamide], the inhibition at 3 µM is reported as 84.3%.
COc1ccnc(COc2ccc(C(=O)Nc3cc(-c4ncc[nH]4)ccc3C)cc2)c1OC [Example 56, 4-[(3,4-dimethoxypyridin-2-yl)methoxy]-N-[5-(1H-imidazol-2-yl)-2-methylphenyl]benzamide] was tested, and the inhibition at 3 µM was 67.4%.
Molecule Cc1ccc(-c2ncc[nH]2)cc1NC(=O)c1ccc(OCc2cc3c(cc2Cl)OCO3)cc1 [Example 57, 4-[(6-chloro-1,3-benzodioxol-5-yl)methoxy]-N-[5-(1H-imidazol-2-yl)-2-methylphenyl]benzamide] has an inhibition at 3 µM of 73.6%.
